ChEMBL document CHEMBL5104211, “Design and synthesis of bile acid derivatives and their activity against colon cancer” (RSC Med Chem, 2022)
The source made the active and inactive calls. The rule behind the calls is not given here.

Legend:
HT-29 = assay: Anticancer activity against human HT-29 cells assessed as inhibition of cell proliferation by MTT assay; type: functional, cell-based
HCT-116 [1] = assay: Anticancer activity against human HCT-116 cells assessed as inhibition of cell proliferation by MTT assay; type: functional, cell-based
RKO = assay: Anticancer activity against human RKO cells assessed as inhibition of cell proliferation by MTT assay; type: functional, cell-based
LoVo = assay: Anticancer activity against human LoVo cells assessed as inhibition of cell proliferation by MTT assay; type: functional, cell-based
SW480 = assay: Anticancer activity against human SW480 cells assessed as inhibition of cell proliferation by MTT assay; type: functional, cell-based
Huh-7 = assay: Anticancer activity against human Huh-7 cells assessed as inhibition of cell proliferation by MTT assay; type: functional, cell-based
SK-HEP1 = assay: Anticancer activity against human SK-HEP1 cells assessed as inhibition of cell proliferation by MTT assay; type: functional, cell-based
A549 = assay: Anticancer activity against human A549 cells assessed as inhibition of cell proliferation by MTT assay; type: functional, cell-based
MGC-803 = assay: Anticancer activity against human MGC-803 cells assessed as inhibition of cell proliferation by MTT assay; type: functional, cell-based
[2] = Cytotoxicity against human WI-38 cells assessed as inhibition of cell proliferation by MTT assay; type: toxicity, cell-based
HCT-116 [3] = assay: Anticancer activity against human HCT-116 cells assessed as inhibition of cell proliferation at 20 micromol/L incubated for 24 hrs by MTT assay; type: functional; conditions: HCT-116, 24 h, dose 20 µmol/L
HCT-116 [4] = assay: Anticancer activity against human HCT-116 cells assessed as inhibition of cell proliferation at 40 micromol/L incubated for 24 hrs by MTT assay; type: functional; conditions: HCT-116, 24 h, dose 40 µmol/L
HCT-116 [5] = assay: Anticancer activity against human HCT-116 cells assessed as inhibition of cell proliferation at 5 to 50 micromol/L incubated for 24 hrs by MTT assay; type: functional, cell-based; conditions: dose 5-50 µmol/L, DDE = dose-dependent effect
HCT-116 [6] = assay: Anticancer activity against human HCT-116 cells assessed as inhibition of cell proliferation at 20 to 40 micromol/L incubated for 24 to 72 hrs by MTT assay; type: functional, cell-based; conditions: dose 20-40 µmol/L, time 24-72 hrs, TDE = time-dependent effect
HCT-116 [7] = assay: Anticancer activity against human HCT-116 cells assessed as decrease in number of colonies at 25 micromol/L and measured after 48 hrs by crystal violet dye based colony formation assay; type: functional, cell-based; conditions: dose 25.0 µmol/L
HCT-116 [8] = assay: Anticancer activity against human HCT-116 cells assessed as decrease in size of colonies at 25 micromol/L and measured after 48 hrs by crystal violet dye based colony formation assay; type: functional, cell-based; conditions: dose 25.0 µmol/L
HCT-116 [9] = assay: Inhibition of cell migration in human HCT-116 cells at 20 micromol/L and measured after 24 hrs by crystal violet staining based transwell assay; type: functional; conditions: HCT-116, 24 h, dose 20 µmol/L
HCT-116 [10] = assay: Inhibition of cell invasion in human HCT-116 cells at 20 micromol/L and measured after 24 hrs by crystal violet staining based transwell assay; type: functional; conditions: HCT-116, 24 h, dose 20 µmol/L
HCT-116 [11] = assay: Induction of apoptosis in human HCT-116 cells assessed as contraction of cell volume at 30 micromol/L incubated for 48 hrs by Giemsa staining based fluorescence microscopy; type: functional; conditions: dose 30.0 µmol/L
HCT-116 [12] = assay: Induction of cell cycle arrest in human HCT-116 cells assessed as accumulation G2/M phase at 25 micromol/L and measured after 48 hrs by propidium iodide staining based flow cytometry analysis (Rvb= 11%); type: functional; conditions: dose 25 µmol/L, at 25 µM
HCT-116 [13] = assay: Induction of apoptosis in human HCT-116 cells assessed as necrotic cells at 30 micromol/L incubated for 48 hrs by annexin V-FITC and propidium iodide staining based flow cytometry analysis (reference value: 0.88%); type: functional; conditions: dose 30 µmol/L, at 30 µM
HCT-116 [14] = assay: Induction of apoptosis in human HCT-116 cells assessed as late apoptotic cells at 30 micromol/L incubated for 48 hrs by annexin V-FITC and propidium iodide staining based flow cytometry analysis (reference value: 7.13%); type: functional; conditions: dose 30 µmol/L, at 30 µM
HCT-116 [15] = assay: Induction of apoptosis in human HCT-116 cells assessed as early apoptotic cells at 30 micromol/L incubated for 48 hrs by annexin V-FITC and propidium iodide staining based flow cytometry analysis (reference value: 2.69%); type: functional; conditions: dose 30 µmol/L, at 30 µM
HCT-116 [16] = assay: Induction of apoptosis in human HCT-116 cells assessed as viable cells at 30 micromol/L incubated for 48 hrs by annexin V-FITC and propidium iodide staining based flow cytometry analysis (reference value: 89.29%); type: functional; conditions: HCT-116, 48 h, dose 30 µmol/L, read-out: Activity
HCT-116 [17] = assay: Induction of apoptosis in human HCT-116 cells assessed as unclear cell rupture edges at 30 micromol/L incubated for 48 hrs by Giemsa staining based fluorescence microscopy; type: functional; conditions: dose 30.0 µmol/L
HCT-116 [18] = assay: Induction of apoptosis in human HCT-116 cells assessed as apoptotic body formation at 30 micromol/L incubated for 48 hrs by Giemsa staining based fluorescence microscopy; type: functional, cell-based; conditions: dose 30.0 µmol/L
HCT-116 [19] = assay: Induction of apoptosis in human HCT-116 cells assessed as retraction of the nucleus at 30 micromol/L incubated for 48 hrs by Giemsa staining based fluorescence microscopy; type: functional, cell-based; conditions: dose 30.0 µmol/L
HCT-116 [20] = assay: Induction of apoptosis in human HCT-116 cells assessed as retraction of the cytoplasm at 30 micromol/L incubated for 48 hrs by Giemsa staining based fluorescence microscopy; type: functional, cell-based; conditions: dose 30.0 µmol/L
HCT-116 [21] = assay: Induction of apoptosis in human HCT-116 cells assessed as increase in number of apoptotic cells at 30 micromol/L incubated for 48 hrs by DAPI staining based fluorescence microscopy; type: functional, cell-based; conditions: dose 30.0 µmol/L
HCT-116 [22] = assay: […] activity in human HCT-116 cells assessed as downregulation of Bcl-2 level at 30 micromol/L incubated for 48 hrs by Western blot analysis; type: functional, cell-based; conditions: dose 30.0 µmol/L
HCT-116 [23] = assay: Anticancer activity in human HCT-116 cells assessed as downregulation of phosphorylated STAT3 level at 30 micromol/L incubated for 48 hrs by Western blot analysis; type: functional, cell-based; conditions: dose 30.0 µmol/L
HCT-116 [24] = assay: Induction of mitochondrial membrane potential loss in human HCT-116 cells and measured after 48 hrs by TRME staining based flow cytometric analysis (reference value: 97.52%); type: functional
HCT-116 [25] = assay: Induction of ROS generation in human HCT-116 cells assessed as increase in intracellular ROS level incubated for 48 hrs by DCFH-DA staining based flow cytometric analysis (Rvb=73.65%); type: functional
RAW264.7 [26] = assay: Anti-inflammatory activity against mouse RAW264.7 cells assessed as inhibition of LPS-induced NO production incubated for 24 hrs in presence of LPS by Griess reagent-based assay; type: functional, cell-based; conditions: RAW264.7, 24 h
RAW264.7 [27] = assay: Anti-inflammatory activity against mouse RAW264.7 cells assessed as downregulation of LPS-induced TNF-alpha level at 10 to 25 micromol/L incubated for 24 hrs in presence of LPS by ELISA; type: functional, cell-based; conditions: dose 10-25 µmol/L

Compound | IC50 (HT-29) [µM] | IC50 (HCT-116 [1]) [µM] | IC50 (RKO) [µM] | IC50 (LoVo) [µM] | IC50 (SW480) [µM] | IC50 (Huh-7) [µM] | IC50 (SK-HEP1) [µM] | IC50 (A549) [µM] | IC50 (MGC-803) [µM] | IC50 [2] [µM] | inhibition at 20 µM (HCT-116 [3]) [%] | inhibition at 40 µM (HCT-116 [4]) [%] | inhibition (HCT-116 [5]) | inhibition (HCT-116 [6]) | Activity (HCT-116 [7]) | Activity (HCT-116 [8]) | inhibition at 20 µM (HCT-116 [9]) [%] | inhibition at 20 µM (HCT-116 [10]) [%] | Activity (HCT-116 [11]) | Activity (HCT-116 [12]) [%] | further results
Cc1ccc(COC(=O)CC[C@@H](C)[C@H]2CC[C@H]3[C@@H]4[C@H](O)C[C@@H]5C[C@H](O)CC[C@]5(C)[C@H]4C[C@H](O)[C@]23C)cc1 | 22.7 | 21.3 | 27.6 | 18.7 | 23.6 | 51.6 | 60.2 | 40.5 | 21.9 | > 500 | < 40 | 90 | Dde | Tde | Active | Active | 80 | 80 | Active | 90.66 | Activity (HCT-116 [13]): 0.81%; Activity (HCT-116 [14]): 72.61%; Activity (HCT-116 [15]): 1.3%; viability at 30 µM (HCT-116 [16]): 25.3%; Activity (HCT-116 [17]): Active; Activity (HCT-116 [18]): Active; Activity (HCT-116 [19]): Active; Activity (HCT-116 [20]): Active; Activity (HCT-116 [21]): Active; Activity (HCT-116 [22]): Active; Activity (HCT-116 [23]): Active; Activity (HCT-116 [24]): 51.59%; Activity (HCT-116 [25]): 95.87%; IC50 (RAW264.7 [26]): 20.6 µM; Activity (RAW264.7 [27]): Active
C[C@H](CCC(=O)OCc1ccc([N+](=O)[O-])cc1)[C@H]1CC[C@H]2[C@@H]3[C@H](O)C[C@@H]4C[C@H](O)CC[C@]4(C)[C@H]3C[C@H](O)[C@]12C | 34.8 | 22 | 29.5 | 24.4 | 31.8 | 63 | 71.9 | 45.7 | 21.8 | > 500 | < 40 | 90 | Dde | Tde | Active | Active | 80 | 80 | Active | 93.18 | Activity (HCT-116 [13]): 0.96%; Activity (HCT-116 [14]): 84.27%; Activity (HCT-116 [15]): 0.93%; viability at 30 µM (HCT-116 [16]): 13.8%; Activity (HCT-116 [17]): Active; Activity (HCT-116 [18]): Active; Activity (HCT-116 [19]): Active; Activity (HCT-116 [20]): Active; Activity (HCT-116 [21]): Active; Activity (HCT-116 [22]): Active; Activity (HCT-116 [23]): Active; Activity (HCT-116 [24]): 58.32%; Activity (HCT-116 [25]): 97.06%; IC50 (RAW264.7 [26]): 20.6 µM; Activity (RAW264.7 [27]): Active
